Each block holds one molecule with its values, some of them ahead of it.
How the values were obtained:
[1] = Half life of the compound at pH 7.4; format: physicochemical
[2] = Half life of the compound in buffer; format: physicochemical
in vitro = conditions: human, platelets
[3] = Half life of the compound; format: physicochemical
[4] = Covalent protein binding in human liver microsomes assessed per mg protein at 10 uM preincubated for 5 mins followed by UDPGA addition and measured after 60 mins by liquid scintillation counting method; format: ADME, Microsome; conditions: 1 h
[5] = Half life in potassium phosphate buffer by liquid chromatography-tandem mass spectrometry; format: physicochemical
[6] = Covalent protein binding in human liver microsomes assessed per mg protein at 50 uM after 60 mins in presence of NADPH by LC-MS/MS method; format: ADME, Microsome; conditions: 1 h

half-life [5]: 990 min
Structure (SMILES): Cc1cccc(Nc2ccccc2C(=O)O)c1C [MEFENAMIC ACID]

PB [6]: 3.6 pmol
Structure (SMILES): Cc1cnc(NC(=O)C2=C(O)c3ccccc3S(=O)(=O)N2C)s1 [MELOXICAM]

half-life [5]: 16.2 min
Structure (SMILES): CCCN(CCC)S(=O)(=O)c1ccc(C(=O)O)cc1 [PROBENECID]

PB [6]: 1.4 pmol
Structure (SMILES): CN1C(C(=O)Nc2nccs2)=C(O)c2ccccc2S1(=O)=O [SUDOXICAM]

half-life [2]: 30 min
Structure (SMILES): Cc1cc(CC(=O)O)n(C)c1C(=O)c1ccc(Cl)cc1 [ZOMEPIRAC]

The remaining lines, values behind:

Structure (SMILES): NC(=O)OCC(C=O)c1ccccc1 (configuration not stated)
half-life [1]: < 0.5 min

Structure (SMILES): Cc1cc(OCCCS(C)(=O)=O)cc(C)c1-c1cccc(COc2ccc3c(c2)OC[C@H]3CC(=O)O[C@H]2O[C@@H](C(=O)O)[C@H](O)[C@H](O)[C@@H]2O)c1
half-life [2]: 30 min

Structure (SMILES): COC(=O)[C@H](c1ccccc1Cl)N1CCc2sccc2C1 [CLOPIDOGREL]
fraction unbound (in vitro): 0.98

Structure (SMILES): CC(C)Cc1ccc(CC(=O)O)cc1 [IBUFENAC]
half-life [3]: 66 min
PB [4]: 1000 to 8600 pmol

Structure (SMILES): CC(C)Cc1ccc(C(C)C(=O)O)cc1 (configuration not stated) [IBUPROFEN]
PB [4]: 1000 to 8600 pmol

Structure (SMILES): Cc1ccc(Cl)c(Nc2ccccc2C(=O)O)c1Cl [MECLOFENAMIC ACID]
half-life [5]: 1690 min
